Data as given in patent publication US4727090A, “Process for preparing and therapeutical applications of the 2,4,6-triiodophenol” (Bislak, S.A., priority 1983, dated 1988).
Where two headings read alike, the source gives them in different places.

How the values were obtained:
[1] = tested on: acetic acid induced pullings; test: Writhing syndrome test (acetic acid); assay type: in vivo, mice; conditions: 500 mg/kg oral; for inhibition at 500 mg/kg: Mus musculus, po, read-out: % INHIB. (pullings)
Protocol: Irritant substance: acetic acid at 0.5% injected via intraperitoneal.
Foundation of the method consists in provoking a dolorous syndrome by pulling and torsion of the stomach and the hind legs of the animals.
These pullings or stretchings are calculated during a certain time, using it as the measure of the provoked ache.
Mice of about 22 g by weight were used, animals were left under abstinence during 24 hours before carrying out the test.
Mice were previously selected as to each individual response to the dolorous stimulus provoked by an intraperitoneal injection of 0.2 ml of an acetic acid aqueous solution at the 0.5%. Valid animals for realizing the test are those which respond within a margin of 15-35 pullings in about 5 to 15 minutes after the injection. The remaining animals are not useful.
Medication is realized via oral with the help of an esophageal cannula.
White lot: Administration of 0.1 ml of CMC 1% for each 10 g of corporal weight.
2,4,6-triiodophenol lot: Administration of 10 mg/kg of the product, suspended in CMC of 1%.
Aspirin-Lysin lot (Solusprin): Administration of 500 mg/kg aspirin, dissolved at 1%.
After medication, one has to wait 20 minutes for injecting 0.2 ml acetic acid of 0.5% via intraperitoneal, calculating the number of pullings during 5 minutes. […]
The test was carried out in 9 mice in each lot.

[2] = tested on: sensation of pain on hot plate; test: Hot plate test at 56° C; assay type: in vivo, mice; conditions: 500 mg/kg injection
Protocol: (A) To control analgesic activity we use mice of about 25 g by weight, in groups of ten mice, subjected to the test of the hot plate at 56° C.
Animals receive a medicamentous injection of 0.1 ml of solubilized aspirin with sodium bicarbonate, or of solubilized triiodophenol at pH 9'5.
Controls receive physiologic serum.
The time in which the animals indicate sensation of pain is measured with a chronometer.
In the hereunder table the results testing animals, 15 min. and 30 min. after the medication. Average values are taken of each group.

[3] = tested on: granuloma formed around cotton implant; test: Cotton implant granuloma test; assay type: in vivo, rats; conditions: 72 hours
Protocol: (B) To a group of 10 rats of about 200-225 g is implanted at the dorsal zone, subcutaneously, balled cotton (about 9 mg) impregnated and afterwards dried with a solution of medicamentous substance and which amount is known.
We use as reference Dexamethasone and controls without medicament.
After 72 hours, once the animal is sacrificed, the granuloma formed around the implant is extracted and weighed, after drying at 100° C.
The antiinflammatory reduces the weight of the granuloma.

Carrageenin leg oedema [4] = test: Carrageenin leg oedema test; assay type: in vivo, white rats; conditions: Rattus norvegicus, 10 mg/kg oral
Carrageenin leg oedema [5] = test: Carrageenin leg oedema test; assay type: in vivo, white rats; conditions: Rattus norvegicus; 10 mg/kg oral, 4 hours
Protocol: (A) The antiinflammatory action is shown in white rats, of a weight of about 200-225 g, having provoked in these animals the leg oedema by means of an injection in the sole of the foot of 0.1 ml of a 1% Carrageenin solution.
One control group of ten animals, another the same medicated with indomethacin via oral at 30 mg/kg, in suspension in a carboxymethylcellulose solution, another group of ten rats, medicated with triiodophenol in oral solution at 5 mg/kg, another group medicated with triioodophenol at 1 mg/kg, injected via intramuscular and another group medicated with triiodophenol at 0.5 mg/kg via intramuscular. All medications are administered simultaneously to the formation of Edema.
The volume of the same is measured at 0 hours, 3 hours, 4 hours, 5 hours and 6 hours with a mercury Plestimograph.

CC(=O)Oc1ccccc1C(=O)O [ASPIRIN, reference compound]
Total No. pullings ([1]; 20'): 12
Total No. pullings ([1]; 30'): 6
Total No. pullings ([1]; 100'): 6
inhibition at 500 mg/kg ([1]; 20'): 90%
inhibition at 500 mg/kg ([1]; 30'): 89.2%

CC(=O)Oc1ccccc1C(=O)O [Acetyl salicylic acid, reference compound]
Time to sensation of pain ([2]; 15 minutes): 4,3 sec.
Time to sensation of pain ([2]; 30 minutes): 6,8 sec.

C[C@@H]1C[C@H]2[C@@H]3CCC4=CC(=O)C=C[C@]4(C)[C@@]3(F)[C@@H](O)C[C@]2(C)[C@@]1(O)C(=O)CO [Dexamethansone, reference compound]
% Reduction of the granuloma (Average) ([3]; 10 micrograms per implant): 16%
% Reduction of the granuloma (Average) ([3]; 20 micrograms per implant): 28%
% Reduction of the granuloma (Average) ([3]; 40 micrograms per implant): 30%

COc1ccc2c(c1)c(CC(=O)O)c(C)n2C(=O)c1ccc(Cl)cc1 [Indomethacin]
inhibition at 10 mg/kg (Carrageenin leg oedema [4]; 3 hours): 59%
inhibition at 10 mg/kg (Carrageenin leg oedema [4]; 5 hours): 69%
inhibition at 10 mg/kg (Carrageenin leg oedema [4]; 6 hours): 73%
inhibition at 10 mg/kg (Carrageenin leg oedema [5]): 63%
